Tumor volume and median survival data for two compounds are collected here from PMC12521527, “In vivo self-assembled nano-PROTAC for the dual degradation of AR and HSP90 to overcome castration-resistant prostate cancer resistance” (Signal Transduction and Targeted Therapy, 2025).

The test deals with 22Rv1 xenograft tumor. The experiment in a line: Antitumor efficacy in 22Rv1 xenograft mice. The format is in vivo, BALB/c nude mice. The settings on record: comparison study, n = 6; for tumor volume: 20 days, Psa-AR 30 mg/kg i.v. every 2 days x5, enzalutamide 25 mg/kg, pimitespib 15 mg/kg, PBS 1017 mm^3; for median survival: PBS 21 days. The text has this:
To evaluate the therapeutic potential and superiority of Psa-AR in prostate cancer, we established subcutaneous xenograft tumor models using AR-mutant 22Rv1 cells.[51] All procedures strictly complied with the Guide for the Care and Use of Laboratory Animals and were approved by the Committee for Animal Research of the National Center for Nanoscience and Technology. When the tumor volume reached ~100 mm³, 22Rv1-bearing mice were randomized into three groups (n = 6/group): the PBS control, Psa-AR, and P-AR groups. Treatments were administered via tail vein injection every other day for five cycles. The tumor volume and body weight were monitored every other day for 20 days (Fig. 6a). […] The individual tumor growth curves for each group are presented in Supplementary Fig. 20. No obvious body weight loss was observed during treatment (Fig. 6c). […] To elucidate the mechanistic basis of tumor suppression, we quantitatively assessed AR and HSP90 protein expression in excised tumor tissues through IF. […] This dual-target degradation profile directly correlates with the observed therapeutic efficacy, validating the assembly driven target engagement and degradation strategy. […] To address the critical limitations of conventional PROTACs, particularly the Hook effect-induced nonlinear pharmacokinetics and narrow therapeutic window. We rigorously evaluated the dose-responsive antitumor efficacy of Psa-AR in 22Rv1 xenograft models. Mice bearing subcutaneous tumors received escalating doses (10, 20, or 30 mg/kg) via intravenous administration every 48 h for five consecutive treatment cycles. The tumor volume and body weight were evaluated for 20 days. Tumor volume was suppressed in a dose-dependent manner, with a mean tumor volume of […], a mean tumor volume of 536 mm^3 at 20 mg/kg and a mean tumor volume of 220 mm^3 at 10 mg/kg (Fig. 6h). The individual tumor growth curves for each group are presented in Supplementary Fig. 21. […] IF analysis of tumor sections provided spatially resolved dose-dependent quantification of AR and HSP90 proteolysis. […] Collectively, the dose-dependent tumor suppression and coordinated target proteolysis observed in the 22Rv1 xenograft model mechanistically validated the therapeutic superiority of in situ self-assembled Psa-AR. To systematically evaluate the therapeutic advantages of the dual-protein targeting strategy of Psa-AR through simultaneous degradation of AR and HSP90 in overcoming tumor drug resistance, this study compared the antitumor efficacy of Psa-AR with that of current clinical regimens (including the AR inhibitor enzalutamide, the HSP90 inhibitor pimitespib, and their combination) in 22Rv1 xenograft models (Fig. 7a). The experimental protocol was designed as follows: When the tumor volume reached ~100 mm³, the tumor-bearing mice were
Fig. 6 In vivo antitumor efficacy of Psa-AR. a Schematic illustration of the tumor inoculation and treatment protocol for 22Rv1 xenograft mice. (n = 6 per group) b Observation of the tumor inhibitory effect on 22Rv1 xenograft mice in PBS, P-AR, or Psa-AR (20 mg/kg in 200 μL of PBS) over 20 days of treatment. c Body weight changes in 22Rv1 xenograft mice in different treatment groups over 20 days. d Kaplan‒Meier survival curves of 22Rv1 xenograft mice in different groups over 20 days of treatment. e Immunofluorescence analysis of AR protein levels in 22Rv1 tumor tissues after treatment with PBS, P-AR, or Psa-AR (20 mg/kg in 200 μL of PBS) for 20 days. Scale bar: 20 μm. f Immunofluorescence analysis of the HSP90 protein levels in 22Rv1 tumor tissues after treatment with PBS, P-AR, or Psa-AR (20 mg/kg in 200 μL of PBS) for 20 days. Scale bar: 20 μm. g Terminal deoxynucleotidyl transferase (TdT) dUTP nick-end labeling (TUNEL) staining of tumors after treatment with PBS, P-AR, or Psa-AR (20 mg/kg in 200 μL of PBS) for 20 days. […]

On to `CNC(=O)c1ccc(N2C(=S)N(c3ccc(C#N)c(C(F)(F)F)c3)C(=O)C2(C)C)cc1F` [enzalutamide, reference compound], for which the tumor volume came to 765 mm^3 and the median survival was 27 days.

Take `CCc1cc(C(N)=O)ccc1-n1nc(C(C)C)c2c(-n3cnc(-c4cnn(C)c4)c3)ccnc21` [pimitespib, reference compound]: the tumor volume amounted to 742 mm^3 and the median survival is recorded as 29 days.
